Experimental findings from US6613747B2, “6-O-carbamoyl ketolide antibacterials” (Ortho-McNeil Pharmaceutical, Inc., priority 2000, dated 2003) are described below.

Holding throughout (experiment): MIC, microdilution broth method (NCCLS)
Common to all, as to assay type: cell-based
(In general: Broth dilution looks for growth in wells or tubes with falling amounts of substance.)

One assay concerns E. coli OC2605. The conditions noted are these: A: E. coli OC2605, 35° C., 16-20 hours. The protocol:
(§1) Minimal inhibitory concentration (MIC) has been an indicator of in vitro antibacterial activity widely used in the art. The in vitro antimicrobial activity of the compounds was determined by the microdilution broth method following the test method from the National Committee for Clinical Laboratory Standards (NCCLS). This method is described in the NCCLS Document M7-A4, Vol. 17, No. 2, “Methods for Dilution Antimicrobial Susceptibility Test for Bacteria that Grow Aerobically—Fourth Edition”, which is incorporated herein by reference.
(§2) In this method two-fold serial dilutions of drug in cation adjusted Mueller-Hinton broth are added to wells in microdilution trays. The test organisms are prepared by adjusting the turbidity of actively growing broth cultures so that the final concentration of test organism after it is added to the wells is approximately 5×10^4 CFU/well.
(§3) Following inoculation of the microdilution trays, the trays are incubated at 35° C. for 16-20 hours and then read. […] The amount of growth in the wells containing the test compound is compared with the amount of growth in the growth-control wells (no test compound) used in each tray. As set forth in Table 1, compounds of the present invention were tested against a variety of Gram positive and Gram negative pathogenic bacteria resulting in a range of activities depending on the organism tested.

The next assay relates to S. aureus ATCC29213. The conditions noted are these: B: S. aureus ATCC29213, 35° C., 16-20 hours. The protocol: as §1, §2, §3
In a further assay the test system is E. faecalis ATCC29212. The conditions noted are these: C: E. faecalis ATCC29212, 35° C., 16-20 hours. The method, then: as §1, §2, §3
Another assay has as its system H. influenzae ATCC49247. The conditions noted are these: E: H. influenzae ATCC49247, 35° C., 16-20 hours. The protocol: as §1, §2, §3
The next assay has as its system S. pneumoniae ATCC49619. The conditions noted are these: D: S. pneumoniae ATCC49619, 35° C., 16-20 hours. The method, then:
as §1, §2, §3

The structures appear in SMILES notation. ≈ marks a conversion by molar mass, not a printed value. A value given as a limit tells only on which side of the number the result lay.

In the case of `CC[C@H]1OC(=O)[C@H](C)C(=O)[C@H](C)[C@@H](O[C@@H]2O[C@H](C)C[C@H](N(C)C)[C@H]2O)[C@](C)(OC(=O)NCCc2ccccc2)C[C@@H](C)C(=O)[C@H](C)[C@H]2NC(=O)O[C@@]21C` [Compound 3], the MIC in the assay on E. coli OC2605 is over 16 mg/L; against S. aureus ATCC29213, 4 mg/L (≈ 5.36 µM); with E. faecalis ATCC29212, 1 mg/L (≈ 1.34 µM); with H. influenzae ATCC49247, 8 mg/L (≈ 10.7 µM); in the assay on S. pneumoniae ATCC49619 it was 0.12 mg/L (≈ 0.161 µM).

In the case of `CC[C@H]1OC(=O)[C@H](C)C(=O)[C@H](C)[C@@H](O[C@@H]2O[C@H](C)C[C@H](N(C)C)[C@H]2O)[C@](C)(OC(=O)NC/C=C/c2ccc(-n3cncn3)cc2)C[C@@H](C)C(=O)[C@H](C)[C@H]2NC(=O)O[C@@]21C` [Compound 20], the MIC against E. coli OC2605 was 16 mg/L (≈ 19.4 µM); in the assay on S. aureus ATCC29213 it was 0.12 mg/L (≈ 0.145 µM); with E. faecalis ATCC29212 it was 0.06 mg/L (≈ 0.0727 µM); against H. influenzae ATCC49247, 4 mg/L (≈ 4.85 µM); in the assay on S. pneumoniae ATCC49619, 0.03 mg/L (≈ 0.0364 µM).

With `CCC1OC(=O)C(C)(F)C(=O)C(C)C(OC2OC(C)CC(N(C)C)C2O)C(C)(OC(=O)NCC=Cc2ccc(-c3ncccn3)cc2)CC(C)C(=O)C(C)C2NC(=O)OC12C` (stereo not drawn) [Compound 75], the MIC against E. coli OC2605 is over 16 mg/L; against S. aureus ATCC29213 it was 0.25 mg/L (≈ 0.293 µM); in the assay on E. faecalis ATCC29212, 0.12 mg/L (≈ 0.141 µM); against H. influenzae ATCC49247, 4 mg/L (≈ 4.68 µM); against S. pneumoniae ATCC49619, 0.03 mg/L (≈ 0.0351 µM).

Take `CC[C@H]1OC(=O)[C@H](C)C(=O)[C@H](C)[C@@H](O[C@@H]2O[C@H](C)C[C@H](N(C)C)[C@H]2O)[C@](C)(OC(=O)NCc2ccc(-c3cnccn3)cc2)C[C@@H](C)C(=O)[C@H](C)[C@H]2NC(=O)O[C@@]21C` [Compound 76]: the MIC is 16 mg/L (≈ 19.8 µM) against E. coli OC2605; 0.25 mg/L (≈ 0.309 µM) in the assay on S. aureus ATCC29213; 0.06 mg/L (≈ 0.0741 µM) in the assay on E. faecalis ATCC29212; 2 mg/L (≈ 2.47 µM) in the assay on H. influenzae ATCC49247; “≦0.015 μg/mL” against S. pneumoniae ATCC49619.

As to `CCC1OC(=O)C(C)(F)C(=O)C(C)C(OC2OC(C)CC(N(C)C)C2O)C(C)(OC(=O)NCC=Cc2ccc(-c3cnccn3)cc2)CC(C)C(=O)C(C)C2NC(=O)OC12C` (stereo not drawn) [Compound 101], the MIC against E. coli OC2605 is 8 mg/L (≈ 9.37 µM); against S. aureus ATCC29213 it was 0.25 mg/L (≈ 0.293 µM); against E. faecalis ATCC29212 it was 0.12 mg/L (≈ 0.141 µM); against H. influenzae ATCC49247, 2 mg/L (≈ 2.34 µM); in the assay with S. pneumoniae ATCC49619, 0.03 mg/L (≈ 0.0351 µM).

For `CCC1OC(=O)C(C)C(=O)C(C)C(OC2OC(C)CC(N(C)C)C2O)C(C)(OC(=O)NCC=Cc2ccc(-c3cccnn3)cc2)CC(C)C(=O)C(C)C2NC(=O)OC12C` (stereo not drawn) [Compound 96], the MIC against E. coli OC2605 came out at 4 mg/L (≈ 4.78 µM); with S. aureus ATCC29213, 0.25 mg/L (≈ 0.299 µM); in the assay with E. faecalis ATCC29212, 0.12 mg/L (≈ 0.144 µM); with H. influenzae ATCC49247 it was 1 mg/L (≈ 1.2 µM); against S. pneumoniae ATCC49619, 0.03 mg/L (≈ 0.0359 µM).

As to `CC[C@H]1OC(=O)[C@H](C)C(=O)[C@H](C)[C@@H](O[C@@H]2O[C@H](C)C[C@H](N(C)C)[C@H]2O)[C@](C)(OC(=O)N2Cc3ccccc3C2)C[C@@H](C)C(=O)[C@H](C)[C@H]2NC(=O)O[C@@]21C` [Compound 138], the MIC in the assay on E. coli OC2605 was over 16 mg/L; in the assay on S. aureus ATCC29213 it was 16 mg/L (≈ 21.5 µM); in the assay with E. faecalis ATCC29212, 2 mg/L (≈ 2.69 µM); with H. influenzae ATCC49247, 8 mg/L (≈ 10.8 µM); against S. pneumoniae ATCC49619, 0.5 mg/L (≈ 0.672 µM).

Consider `CC[C@H]1OC(=O)[C@H](C)C(=O)[C@H](C)[C@@H](O[C@@H]2O[C@H](C)C[C@H](N(C)C)[C@H]2O)[C@](C)(OC(=O)NC/C=C/c2ccc(-c3ccc([N+](=O)[O-])cn3)cc2)C[C@@H](C)C(=O)[C@H](C)[C@H]2NC(=O)O[C@@]21C` [Compound 45], for which the MIC was over 16 mg/L with E. coli OC2605; 1 mg/L (≈ 1.14 µM) against S. aureus ATCC29213; 0.5 mg/L (≈ 0.568 µM) against E. faecalis ATCC29212; 4 mg/L (≈ 4.55 µM) against H. influenzae ATCC49247; 0.25 mg/L (≈ 0.284 µM) in the assay with S. pneumoniae ATCC49619.

Consider `CCC1OC(=O)C(C)(F)C(=O)C(C)C(OC2OC(C)CC(N(C)C)C2O)C(C)(OC(=O)NCC=Cc2cn(-c3ncccn3)cn2)CC(C)C(=NO)C(C)C2NC(=O)OC12C` (stereo not drawn) [Compound 124], for which the MIC was 16 mg/L (≈ 18.6 µM) in the assay with E. coli OC2605; 0.25 mg/L (≈ 0.291 µM) in the assay on S. aureus ATCC29213; 0.12 mg/L (≈ 0.14 µM) in the assay on E. faecalis ATCC29212; 4 mg/L (≈ 4.66 µM) against H. influenzae ATCC49247; 0.03 mg/L (≈ 0.0349 µM) against S. pneumoniae ATCC49619.
